Measured values reported in patent publication US12145947B2, “Pyrimidine based modulators and uses thereof” (Quanta Therapeutics, Inc., priority 2022, dated 2024).
Where two headings read alike, the source gives them in different places.

Tests used:
KRAS G12D/RAF1 = target: T1, KRAS G12D/RAF1 (Homo sapiens, UniProt P01116, G12D); assay: Protein-protein interaction (PPI) HTRF assay KRAS G12D/RAF1; type: binding
T1 construct: His6-MBP (N, cleaved yes); made in house; host or cells: E. coli
In short: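 Biotinylated human KRAS (1-169; wt, G12D, G12V) or wt NRAS, GppNHp-loaded, pre-incubated 30 min RT with compound and streptavidin-d2, then His-RAF1 RBD (52-131) with anti-6His Tb cryptate added for 1 h RT. HTRF 665/615 ratio normalized to no compound (0%) and untagged RAF1 (100%); IC50.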

[1] = test system: AGS cells (KRAS G12D), phospho-ERK; assay: pERK In Cell Western (ICW) assay (Method B), AGS cells; type: cell-based; conditions: Homo sapiens
Experimental: (§1) pERK ICW is a high throughput screening assay to evaluate the cellular potency of mutant KRAS small molecule inhibitors. KRAS mutant cell lines AGS and GP2D (KRAS^G12D) were purchased from ATCC and maintained respectively in RPMI and DMEM medium supplemented with 10% fetal bovine serum and Penicillin/Streptomycin.
(§2) Cells grown in exponential phase were trypsinized, resuspended in fresh media, and viable cells were counted using a cell counter with Trypan Blue (BioRad TC20). Cells were seeded into 384-well plate (Greiner 781091) at density of 5,000 cells/well for AGS and 10,000 cells/well for GP2D and allowed to grow overnight in a 37° C. CO2 incubator. The next day, compounds were dispensed into wells with a ½ log, 10-point serial dilution and top concentration of […] using Tecan D300e dispenser and incubated for 3 hours in a 37° C. CO2 incubator. Cells were then fixed with paraformaldehyde (Electron Microscopy Sciences, 15710, 4% final concentration) for 30 min, permeabilized with wash buffer (1×PBS+0.1% Triton X-100) for 30 min and blocked with Odyssey blocking buffer (Li—COR 927-70001) for 1 hour, all at room temperature (RT). Phospho-ERK antibody (CST 4370L) was diluted 1:500 in Odyssey blocking+0.2% Tween 20 and incubated with cells overnight at 4° C. The next day, plates were washed 5× with wash buffer, incubated with IRDye 800 CW, Goat anti-Rabbit secondary antibody (Li—COR 926-32211, 1:500) and DRAQ5 (CST 4084L, 1:5,000) diluted in Odyssey blocking+0.2% Tween 20 for 1 hour, washed 5×, and imaged on an Odyssey CLx imaging system.
(§3) For data analysis, signal intensities from 800 (phosphor-ERK) and 700 (DRAQ5) channels were extracted, and phospho-ERK signals were normalized to DRAQ5 signals for each well and percent of DMSO control values were computed. Data were then imported into Graphpad Prism to compute half-maximal inhibitory concentrations (IC50) using a 4-parameter variable slope model. Z-factor for each plate was computed from signals derived from wells treated with either DMSO or […] of Trametinib. AGS pERK ICW (Method B) IC50 (uM) values of selected compounds are depicted in Table 2 with compounds having a value 0.001 uM to 0.01 uM as ++++; >0.01 uM to 0.1 uM as +++; >0.1 uM to 1 uM as ++; 1 uM to 10 uM as + and >10 uM as NA.

[2] = test system: GP2D cells (KRAS G12D), phospho-ERK; assay: pERK In Cell Western (ICW) assay, GP2D cells; type: cell-based; conditions: Table 4, 3 hours
Experimental: as §1, §2, §3

[3] = Table 4, pERK, 3 hours, read-out: ICW-AGS

T1 sequence (P01116 with tags, fused parts or gaps isoform P01116-2 G12D): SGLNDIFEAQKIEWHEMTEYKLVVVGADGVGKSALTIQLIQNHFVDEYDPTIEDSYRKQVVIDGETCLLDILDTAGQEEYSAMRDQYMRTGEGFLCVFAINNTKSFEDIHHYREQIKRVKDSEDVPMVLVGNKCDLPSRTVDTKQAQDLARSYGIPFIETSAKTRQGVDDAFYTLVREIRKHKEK

## CN(C)C(=O)c1nn2c(c1Cl)CN(c1nc(OC[C@@]34CCCN3C[C@H](F)C4)nc(N3CC4(CCc5sc(N)c(C#N)c54)C3)c1C#N)CCC2 [Compound 2, 5-[6-(2-amino-3-cyano-spiro[5,6-dihydrocyclopenta[b]thiophene-4,3′-azetidine]-1′-yl)-5-cyano-2-[[(2R,8S)-2-fluoro-1,2,3,5,6,7-hexahydropyrrolizin-8-yl]methoxy]pyrimidin-4-yl]-3-chloro-N,N-dimethyl-4,6,7,8-tetrahydropyrazolo[1,5-a][1,4]diazepine-2-carboxamide]
KRAS G12D/RAF1; Table 2
  IC50: 100 to 1000 nM
KRAS G12D/RAF1; Table 4
  IC50: 100 to 1000 nM
[1]; Table 2, 3 hours, ICW, read-out: pERK-AGS (uM) Method B
  IC50: 0.01 to 0.1 µM
[1]; [3]
  IC50: 0.01 to 0.1 µM
[2]
  IC50: 1 to 10 nM

## CN(C)C(=O)c1nn2c(c1Cl)CN(c1nc(OC[C@@]34CCCN3C[C@H](F)C4)nc(N3CC4(CCCc5sc(N)c(C#N)c54)C3)c1C#N)CCC2 [Compound 3, 5-[6-(2-amino-3-cyano-spiro[6,7-dihydro-5H-benzothiophene-4,3′-azetidine]-1′-yl)-5-cyano-2-[[(2R,8S)-2-fluoro-1,2,3,5,6,7-hexahydropyrrolizin-8-yl]methoxy]pyrimidin-4-yl]-3-chloro-N,N-dimethyl-4,6,7,8-tetrahydropyrazolo[1,5-a][1,4]diazepine-2-carboxamide]
KRAS G12D/RAF1; Table 2
  IC50: 10000 to 100000 nM
KRAS G12D/RAF1; Table 4
  IC50: 1000 to 10000 nM
[1]; [3]
  IC50: 0.01 to 0.1 µM
[2]
  IC50: 1 to 10 nM

## N#Cc1c(N2C[C@H]3CC[C@@H](C2)N3)nc(OCC2(CN3CCOCC3)CC2)nc1N1CC2(CCc3sc(N)c(C#N)c32)C1 [Compound 4, 2-amino-1′-[5-cyano-2-[[1-(morpholinomethyl)cyclopropyl]methoxy]-6-[(1R,5S)-3,8-diazabicyclo[3.2.1]octan-3-yl]pyrimidin-4-yl]spiro[5,6-dihydrocyclopenta[b]thiophene-4,3′-azetidine]-3-carbonitrile]
KRAS G12D/RAF1; Table 4
  IC50: < 100 nM
[1]; [3]
  IC50: 0.001 to 0.01 µM
[2]
  IC50: 1 to 10 nM

## CN(C)C(=O)c1nn2c(c1Cl)CN(c1nc(OCC3(CN4CCOCC4)CC3)nc(N3CC4(CCc5sc(N)c(C#N)c54)C3)c1C#N)CCC2 [Compound 5, 5-[6-(2-amino-3-cyano-spiro[5,6-dihydrocyclopenta[b]thiophene-4,3′-azetidine]-1′-yl)-5-cyano-2-[[1-(morpholinomethyl)cyclopropyl]methoxy]pyrimidin-4-yl]-3-chloro-N,N-dimethyl-4,6,7,8-tetrahydropyrazolo[1,5-a][1,4]diazepine-2-carboxamide]
KRAS G12D/RAF1; Table 4
  IC50: 1000 to 10000 nM
[1]; [3]
  IC50: 0.01 to 0.1 µM
[2]
  IC50: 1 to 10 nM

## N#Cc1c(N)sc2c1C1(CC2)CN(c2nc(OC[C@@]34CCCN3C[C@H](F)C4)nc(N3CCC[C@]4(C3)NC(=O)NC4=O)c2F)C1 [Compound 7, 2-amino-1′-[6-[(5R)-2,4-dioxo-1,3,9-triazaspiro[4.5]decan-9-yl]-5-fluoro-2-[[(2R,8S)-2-fluoro-1,2,3,5,6,7-hexahydropyrrolizin-8-yl]methoxy]pyrimidin-4-yl]spiro[5,6-dihydrocyclopenta[b]thiophene-4,3′-azetidine]-3-carbonitrile]
KRAS G12D/RAF1; Table 4
  IC50: 100 to 1000 nM
[1]; [3]
  IC50: 1 to 10 µM
[2]
  IC50: 100 to 1000 nM

## CN(C)C(=O)c1cc2n(n1)CCCN(c1nc(OC[C@@]34CCCN3C[C@H](F)C4)nc(N3CC4(CCc5sc(N)c(C#N)c54)C3)c1C#N)C2 [Compound 8, 5-[6-(2-amino-3-cyano-spiro[5,6-dihydrocyclopenta[b]thiophene-4,3′-azetidine]-1′-yl)-5-cyano-2-[[(2R,8S)-2-fluoro-1,2,3,5,6,7-hexahydropyrrolizin-8-yl]methoxy]pyrimidin-4-yl]-N,N-dimethyl-4,6,7,8-tetrahydropyrazolo[1,5-a][1,4]diazepine-2-carboxamide]
KRAS G12D/RAF1; Table 4
  IC50: 1000 to 10000 nM
[1]; [3]
  IC50: 0.01 to 0.1 µM
[2]
  IC50: 1 to 10 nM

## CN(C)C(=O)c1nn2c(c1Cl)CN(c1nc(OC[C@@]34CCCN3C[C@H](F)C4)nc(N3CC4(CCc5sc(N)c(C#N)c54)C3)c1F)CCC2 [Compound 9, 5-[6-(2-amino-3-cyano-spiro[5,6-dihydrocyclopenta[b]thiophene-4,3′-azetidine]-1′-yl)-5-fluoro-2-[[(2R,8S)-2-fluoro-1,2,3,5,6,7-hexahydropyrrolizin-8-yl]methoxy]pyrimidin-4-yl]-3-chloro-N,N-dimethyl-4,6,7,8-tetrahydropyrazolo[1,5-a][1,4]diazepine-2-carboxamide]
KRAS G12D/RAF1; Table 4
  IC50: 1000 to 10000 nM
[1]; [3]
  IC50: 0.1 to 1 µM
[2]
  IC50: 10 to 100 nM

## CN(C)C(=O)c1nn2c(c1Cl)CN(c1nc(OC[C@@]34CCCN3C[C@H](F)C4)nc(N3CC4(CCCCc5sc(N)c(C#N)c54)C3)c1C#N)CCC2 [Compound 10, 5-[6-(2-amino-3-cyano-spiro[5,6,7,8-tetrahydrocyclohepta[b]thiophene-4,3′-azetidine]-1′-yl)-5-cyano-2-[[(2R,8S)-2-fluoro-1,2,3,5,6,7-hexahydropyrrolizin-8-yl]methoxy]pyrimidin-4-yl]-3-chloro-N,N-dimethyl-4,6,7,8-tetrahydropyrazolo[1,5-a][1,4]diazepine-2-carboxamide]
KRAS G12D/RAF1; Table 4
  IC50: 1000 to 10000 nM
[1]; [3]
  IC50: 0.01 to 0.1 µM
[2]
  IC50: 10 to 100 nM

## N#Cc1c(N2CC3(CCc4sc(N)c(C#N)c43)C2)nc(OC[C@@]23CCCN2C[C@H](F)C3)nc1N1CCC[C@]2(C1)NC(=O)NC2=O [Compound 11, 2-amino-1′-[5-cyano-6-[(5R)-2,4-dioxo-1,3,9-triazaspiro[4.5]decan-9-yl]-2-[[(2R,8S)-2-fluoro-1,2,3,5,6,7-hexahydropyrrolizin-8-yl]methoxy]pyrimidin-4-yl]spiro[5,6-dihydrocyclopenta[b]thiophene-4,3′-azetidine]-3-carbonitrile]
KRAS G12D/RAF1; Table 4
  IC50: 100 to 1000 nM
[1]; [3]
  IC50: 1 to 10 µM
[2]
  IC50: 1000 to 10000 nM

## N#Cc1c(N2C[C@H]3CC[C@@H](C2)N3)nc(OCC2(c3ccn[nH]3)CC2)nc1N1CC2(CCc3sc(N)c(C#N)c32)C1 [Compound 98, 2-amino-1′-[5-cyano-6-[(1R,5S)-3,8-diazabicyclo[3.2.1]octan-3-yl]-2-[[1-(1H-pyrazol-5-yl)cyclopropyl]methoxy]pyrimidin-4-yl]spiro[5,6-dihydrocyclopenta[b]thiophene-4,3′-azetidine]-3-carbonitrile]
KRAS G12D/RAF1; Table 4
  IC50: 1000 to 10000 nM
[2]
  IC50: 1000 to 10000 nM

## N#Cc1c(N2C[C@H]3CC[C@@H](C2)N3)nc(OC[C@@]23CCCN2C[C@H](F)C3)nc1N1CC2(C1)c1c(sc(N)c1C#N)CC1CC12 (stereo partly drawn) [Compound 99, 2-amino-1′-[5-cyano-6-[(1R,5S)-3,8-diazabicyclo[3.2.1]octan-3-yl]-2-[[(2R,8S)-2-fluoro-1,2,3,5,6,7-hexahydropyrrolizin-8-yl]methoxy]pyrimidin-4-yl]spiro[4a,5,5a,6-tetrahydrocyclopropa[f]benzothiophene-4,3′-azetidine]-3-carbonitrile]
KRAS G12D/RAF1; Table 4
  IC50: 100 to 1000 nM
[2]
  IC50: 1 to 10 nM

## N#Cc1c(N2C[C@H]3CC[C@@H](C2)N3)nc(OCC2(CN3CCOCC3)CC2)nc1N1CC2(C1)SCc1sc(N)c(C#N)c12 [Compound 100, 2-amino-1′-[5-cyano-6-[(1R,5S)-3,8-diazabicyclo[3.2.1]octan-3-yl]-2-[[1-(morpholinomethyl)cyclopropyl]methoxy]pyrimidin-4-yl]spiro[6H-thieno[2,3-c]thiophene-4,3′-azetidine]-3-carbonitrile]
KRAS G12D/RAF1; Table 4
  IC50: < 100 nM
[2]
  IC50: 1 to 10 nM

## N#Cc1c(N2C[C@H]3CC[C@@H](C2)N3)nc(OCC2(CN3CCOCC3)CC2)nc1N1CC2(C1)c1c(sc(N)c1C#N)CC2F (stereo partly drawn) [Compound 101, 2-amino-1′-[5-cyano-6-[(1R,5S)-3,8-diazabicyclo[3.2.1]octan-3-yl]-2-[[1-(morpholinomethyl)cyclopropyl]methoxy]pyrimidin-4-yl]-5-fluoro-spiro[5,6-dihydrocyclopenta[b]thiophene-4,3′-azetidine]-3-carbonitrile]
KRAS G12D/RAF1; Table 4
  IC50: 100 to 1000 nM
[2]
  IC50: 1 to 10 nM

## Cc1n[nH]nc1COc1nc(N2C[C@H]3CC[C@@H](C2)N3)c(C#N)c(N2CC3(CCc4sc(N)c(C#N)c43)C2)n1 [Compound 108]
KRAS G12D/RAF1; Table 4
  IC50: 10000 to 100000 nM
[2]
  IC50: 1000 to 10000 nM
